The values below come from publication PMC11330772, “Unveiling the kinetic versatility of aryl-alcohol oxidases with different electron acceptors” (Frontiers in Bioengineering and Biotechnology, 2024).

The target in experiment [1] is T1, BaAAO (Bjerkandera adusta, UniProt A0ABF7PQ87). As to the kind of experiment: Isothermal titration calorimetry with BQ. The experiment is classed as binding. As to the method:
(§1) The interaction parameters of the enzymes with BQ were determined using an Auto-ITC200 high-sensitivity microcalorimeter (MicroCal, Malvern-Panalytical) thermostatted at 25 °C. Enzyme solutions (∼6 μM for BaAAO and 15 μM for PeAAO) were titrated with BQ (∼50 µM for BaAAO and ∼100 μM for PeAAO) in 50 mM Tris/HCl, pH 7.0. Up to 19 injections of 2 µL were programmed with enough time spacing for the signal to recover the baseline. The association constant (K a), the enthalpy change (ΔH) and the apparent stoichiometry (n) were estimated through non-linear regression of the experimental data using a model for one binding site implemented in Origin (Origin 7.0, OriginLab). The dissociation constant (K d), the Gibbs energy change (ΔG), and the entropy change (–TΔS) were obtained from basic thermodynamic relationships.
Background: Isothermal titration calorimetry measures the heat released or taken up as one component is titrated into another.

The target of experiment [2] is T2, PeAAO (Pleurotus eryngii, UniProt O94219). As to the kind of experiment: Isothermal titration calorimetry with BQ. In kind it is binding. On the procedure: as §1
In experiment [3] the target is T2, PeAAO. As to the kind of experiment: Stopped-flow oxidative half-reaction (flavin reoxidation by O2 or BQ). The settings on record: for second phase of reoxidation (k ox B→C): two-step model.
Experiment [4] concerns the target T1, BaAAO. Details: method as in Ferreira et al. (2023). To be noted: alcohol substrate 4-methoxybenzyl alcohol, 50 mM phosphate, pH 6.0, 25 °C, ref Ferreira et al. (2023); cited from earlier work.
Experiment [5] has as its target T1, BaAAO. As to the kind of experiment: Steady-state bi-substrate kinetics of alcohol oxidation. To be noted: BaAAO, alcohol substrate 3-Cl-4-methoxybenzyl alcohol; 50 mM phosphate, pH 6.0, 25 °C. In kind it is biochemical. On the procedure:
(§2) Bi-substrate kinetics were analyzed by concurrently varying the concentration of the aforementioned alcohols and electron acceptors. Oxygen assays were carried out in a screw-cap cuvette where the alcohol was equilibrated with the desired concentration of O2 by bubbling with the appropriate O2/N2 gas mixture (4%, 10%, 21%, 44%, and 100% O2) for 10 min. Alcohol oxidation was initiated by the addition of the enzyme and followed at 285 nm for 4-methoxybenzaldehyde production and 295 nm in the case of 3-Cl-4-methoxybenzaldehyde (Δε285 = 16,950 M^−1cm^−1 and Δε295 = 15,000 M^−1cm^−1, respectively) ([Ferreira et al., 2005]). […]. BQ solutions were prepared immediately prior to use and protected from the light to avoid photodegradation.
(§3) The initial rates for bi-substrate kinetics were fitted to Eq. 1 or Eq. 2, which describe sequential and ping-pong kinetic mechanisms, respectively. […]

For experiment [6], the target named is T2, PeAAO. The description is as above. In kind it is biochemical. The settings on record: alcohol substrate 3-Cl-4-methoxybenzyl alcohol, 50 mM phosphate, pH 6.0, 25 °C. On the procedure:
as §2, §3

Experiment [7] concerns the target T2, PeAAO. Set-up: method as in Ferreira et al. (2023). To be noted: alcohol substrate 4-methoxybenzyl alcohol, 50 mM phosphate, pH 6.0, 25 °C, ref Ferreira et al. (2023); cited from earlier work.
Experiment [8] deals with T1, BaAAO. Nature of the experiment: Redox state of the enzyme during turnover (stopped-flow). The experiment is classed as biochemical. To be noted: BQ as electron acceptor, both alcohols, anaerobic, pH 6.0, 25 °C.
For experiment [9], the target named is T2, PeAAO. Described as above. The experiment is classed as biochemical. To be noted: BQ as electron acceptor, regardless of the alcohol substrate, anaerobic, pH 6.0, 25 °C. As to the method: Experiments with O2 were performed with the alcohol under air-saturated conditions, while in the case of BQ, the alcohol was mixed with saturating concentration of BQ (300 µM) under anaerobic conditions. The spectral evolution of the enzymes during redox turnover was recorded between 350 and 700 nm.

Structures are written as SMILES. Read-outs that look alike come from different tables or passages of the source. Where only a bound is given, the exact number is not on record here.

T1 sequence (A0ABF7PQ87 entry or part of it): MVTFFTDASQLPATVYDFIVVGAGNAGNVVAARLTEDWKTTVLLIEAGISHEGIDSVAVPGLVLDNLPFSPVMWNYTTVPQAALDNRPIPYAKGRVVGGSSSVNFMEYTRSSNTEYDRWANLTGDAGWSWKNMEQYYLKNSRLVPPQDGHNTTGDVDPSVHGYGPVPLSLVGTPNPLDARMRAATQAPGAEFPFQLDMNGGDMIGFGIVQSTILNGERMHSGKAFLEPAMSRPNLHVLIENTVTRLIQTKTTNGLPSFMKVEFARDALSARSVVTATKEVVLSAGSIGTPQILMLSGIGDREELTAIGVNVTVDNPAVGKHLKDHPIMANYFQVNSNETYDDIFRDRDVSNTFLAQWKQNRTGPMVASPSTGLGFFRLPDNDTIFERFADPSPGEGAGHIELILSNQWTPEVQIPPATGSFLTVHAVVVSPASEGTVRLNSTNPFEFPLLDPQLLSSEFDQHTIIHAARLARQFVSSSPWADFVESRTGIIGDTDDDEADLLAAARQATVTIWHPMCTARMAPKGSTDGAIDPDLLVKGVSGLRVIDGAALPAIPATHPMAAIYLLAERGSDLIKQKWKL
T2 sequence (O94219 entry or part of it): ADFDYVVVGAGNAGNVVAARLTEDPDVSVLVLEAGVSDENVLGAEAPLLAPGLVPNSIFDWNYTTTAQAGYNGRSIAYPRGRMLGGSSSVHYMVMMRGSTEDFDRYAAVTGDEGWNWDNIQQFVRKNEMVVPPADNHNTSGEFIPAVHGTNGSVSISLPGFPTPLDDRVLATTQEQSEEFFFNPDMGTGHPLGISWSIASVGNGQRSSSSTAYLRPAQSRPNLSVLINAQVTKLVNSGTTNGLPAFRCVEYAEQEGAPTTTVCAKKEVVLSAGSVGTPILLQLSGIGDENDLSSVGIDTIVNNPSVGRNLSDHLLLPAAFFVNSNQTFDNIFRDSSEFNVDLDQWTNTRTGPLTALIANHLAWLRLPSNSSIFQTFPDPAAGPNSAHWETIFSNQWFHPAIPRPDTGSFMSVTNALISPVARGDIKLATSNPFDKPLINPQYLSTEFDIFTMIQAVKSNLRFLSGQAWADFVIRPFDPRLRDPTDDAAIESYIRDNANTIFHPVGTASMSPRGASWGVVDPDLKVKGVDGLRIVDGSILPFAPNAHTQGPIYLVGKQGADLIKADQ

As usually defined, the Kd is a measure of binding affinity in units of concentration. Read a high Kd as lower affinity. On to `O=C1C=CC(=O)C=C1` [BQ, 1,4-benzoquinone], for which the Kd was 0.05 µM at BaAAO [1] and 27.1 µM at PeAAO [2]. Further, the “K d of alcohols higher than K d of BQ” value at BaAAO [1] (BaAAO) is ≤ 15,000 fold. Also, the ΔH at BaAAO [1] (BaAAO, ITC, 25 °C, 50 mM Tris/HCl, pH 7.0, error ±0.4) is -21.4 kcal/mol; at PeAAO [2] (PeAAO, ITC, 25 °C, 50 mM Tris/HCl, pH 7.0, error ±0.4), -25.1 kcal/mol. Further, the ΔG at BaAAO [1] (BaAAO, ITC, 25 °C, 50 mM Tris/HCl, pH 7.0, from K d) is -9.9 kcal/mol; on PeAAO [2] (PeAAO, ITC, 25 °C, 50 mM Tris/HCl, pH 7.0, from K d) it was -6.2 kcal/mol. Moreover, the “–TΔS” value at BaAAO [1] (BaAAO, ITC, 25 °C, 50 mM Tris/HCl, pH 7.0, –TΔS = ΔG–ΔH) is on record as 11.5 kcal/mol; at PeAAO [2] (PeAAO, ITC, 25 °C, 50 mM Tris/HCl, pH 7.0, –TΔS = ΔG–ΔH) it was 18.9 kcal/mol. On PeAAO [3] (PeAAO), the “reverse rate constant (k rev), y-axis intercept of reoxidation” value is 55 s⁻¹. Moreover, the “second phase of reoxidation (k ox B→C)” value fell in the range of 5 to 10 s⁻¹ at PeAAO [3] (PeAAO reoxidized with 50 µM of BQ) and 15 to 20 s⁻¹ at PeAAO [3] (PeAAO reoxidized with 100 µM of BQ). Further, the “first phase share of the total amplitude of reoxidation” value was “more than 50%” on PeAAO [3] (PeAAO, 50 µM of BQ) and above 85% at PeAAO [3] (PeAAO, 100 µM of BQ). The “k cat/K m(acceptor)” value is 450000 ± 70000 M⁻¹ s⁻¹ on BaAAO [4], 353000 ± 65000 M⁻¹ s⁻¹ on BaAAO [5], 722000 ± 64000 M⁻¹ s⁻¹ on PeAAO [6] and 1,025 ± 154 s^−1mM^−1 on PeAAO [7]. Besides, the “enzyme in the oxidized state during turnover” value is recorded as around 90% on BaAAO [8] and 85%–92% on PeAAO [9].
